Reference: patent US9877998B2, “Uses of hypoxia-inducible factor inhibitors” (OncoImmune, Inc., priority 2009, dated 2018)

Assays:
[1] = test system: lymphoma CSC (c-Kit+Sca-1+ TGB lymphoma cells); test: Colony formation (CFU) assay of TGB lymphoma cells in 1% methylcellulose medium; format: cell-based, mouse; conditions: for effect on lymphoma CFU (colony number): cultured lymphoma cells treated 24 hours with pharmacologically effective doses (echinomycin: low doses), drugs washed away
Description: FIG. 2. HIF addiction of CSC. a. Selective ablation of lymphoma CFU by echinomycin. The cultured lymphoma cells were treated with given doses of pharmacologically effective drugs in medium for 24 hours. After washing away the drugs, the cells were cultured in 1% methylcellulose-containing medium, and the colony number was counted after 6 to 7 days. Data shown are means and SD of triplicates and have been confirmed by 3 independent experiments. b. A reporter system for HIF activity in the TGB lymphoma. Diagram of lentiviral construct for HIF activity is shown on the top. Pause, a sequence fragment to eliminate the effect of lentiviral promoter; HRE, Hypoxia response element (SEQ ID NO: 20); TATA, TATA sequence (TATATAAT) (top). Lower left, validation of the reporter. HEK293 cells were transiently transfected with cDNA encoding mutant HIF1α (P402A/P577A) or vector control in conjunction with either HRE-driven EGFP reporter, HRE mutant reporter (SEQ ID NO: 21). The cells were analyzed by flow cytometry to detect EGFP expression 36 hours after transduction. […] IC50 of echinomycin in the inhibition of HIF1α activity in lymphoma CSC. The lymphoma cells transfected with the HRE reporter system were cultured in the presence of different concentration of echinomycin for 12 hours, the % of c-Kit^+GFP^+ cells was normalized against the untreated group (1.13%, which was defined as 100%). […] Selectivity of HIF inhibitor for CFU of lymphoma CSC over the CFU from hematopoietic progenitor cells. c-Kit^+Sca-1^+ cells from either TGB or normal bone marrow were treated with given concentration of echinomycin overnight prior to plating in the medium containing 1% methylcellulose for CFU assay. The data shown were % of untreated controls, and were means+/−S.D. of triplicates. e. Therapeutic effect of a low dose of echinomycin. Cultured lymphoma cells (1×10^6/mouse) were injected i.p. into immune competent B10.BR mice. Fourteen days later, 10 μg/Kg/Injection of echimomycin was injected at a two-day interval for a total of 5 times. Control mice received vehicle only. The mice were observed daily for survival.
FIG. 6. HIF works in concert with Notch pathway to maintain CSC. a. Inhibition of colony-forming activity of CSC. The cultured lymphoma cells were treated with given doses of L685, 458 for 24 hours. After that, the cells were cultured in 1% methylcellulose-containing medium, and the colony number was counted after 6 to 7 days. Data shown are means+/−SD of triplicate samples and are representative of those of at least 3 independent experiments. b. Enhanced Notch activity in CSC, as indicated by the levels of Hes1 transcripts. The lymphoma cells from spleen with tumor in TGB transgenic mouse were sorted into c-kit^+Sca-1^+ or c-kit^−Sca-1^− fractions. The expressions of Hes1αnd mRNA in these two fractions were measured by real time PCR. c. Inhibition of Notch activity by 3 distinct HIF inhibitors. Cultured TGB lymphoma cells were stained with APC conjugated anti-c-Kit-antibody and enriched twice using anti-APC coated MACS beads according to manufacturer's protocol (Militenyi Biotec). The c-kit positive cells-enriched samples (60.4% c-Kit^+ cells) were treated with inhibitors of HIF for 16 hours. The mRNA from the treated cells were extracted for quantitation by real-time PCR. Data shown are means+/−SD of triplicates and represent those from at least 3 independent experiments. 2ME2, 2-methoxyestradiol; GA, geldamycin. d-g. […] A truncated Notch gene with potent dominant negative activity in inhibiting the expression of Notch target gene Hes. […] The right panel show dominant inhibition of Hes expression. After three consecutive transductions by either vector control or the dRdA1-4dOP mutant, the RNA were isolated and the transcripts of Hes measured by quantitative PCR. Data shown are means of triplicates and have been reproduced by two independent experiments. e. Notch I-C deltaRAM abrogates the c-Kit^+Sca-1^+ subset. […]

TGB lymphoma = test: In vivo tumorigenicity / therapy of transplanted TGB lymphoma in B10.BR mice (survival); conditions: 9×10^5 lymphoma cells i.p., 5 injections at two day interval from day 8; less efficacy than echinomycin (FIG. 12b)
Description: FIG. 2. HIF addiction of CSC. a. Selective ablation of lymphoma CFU by echinomycin. The cultured lymphoma cells were treated with given doses of pharmacologically effective drugs in medium for 24 hours. After washing away the drugs, the cells were cultured in 1% methylcellulose-containing medium, and the colony number was counted after 6 to 7 days. Data shown are means and SD of triplicates and have been confirmed by 3 independent experiments. b. A reporter system for HIF activity in the TGB lymphoma. Diagram of lentiviral construct for HIF activity is shown on the top. Pause, a sequence fragment to eliminate the effect of lentiviral promoter; HRE, Hypoxia response element (SEQ ID NO: 20); TATA, TATA sequence (TATATAAT) (top). Lower left, validation of the reporter. HEK293 cells were transiently transfected with cDNA encoding mutant HIF1α (P402A/P577A) or vector control in conjunction with either HRE-driven EGFP reporter, HRE mutant reporter (SEQ ID NO: 21). The cells were analyzed by flow cytometry to detect EGFP expression 36 hours after transduction. […] IC50 of echinomycin in the inhibition of HIF1α activity in lymphoma CSC. […]
Given numbers of total tumor cells or sorted subsets were injected into either immune competent B10.BR mice or RAG-2^−/−BALB/c mice. […] The therapeutic effects were analyzed by Kaplan Meier survival analysis.

[2] = test system: lymphoma CSC (c-Kit+Sca-1+ TGB lymphoma cells); test: Colony formation (CFU) assay of TGB lymphoma cells in 1% methylcellulose medium; format: cell-based, mouse; conditions: first and second rounds of sorted cells, 1000/well, drug 24 hours, colonies counted after 5 days
[3] = colonies counted after 6 to 7 days

Compound | effect on lymphoma CFU (colony number) [1, 3] | also measured
OCC1OC(O)CC(O)C1O (stereo not shown) [2-DG] | no effect | 
COc1cc2c(cc1O)CC[C@@H]1[C@@H]2CC[C@]2(C)[C@@H](O)CC[C@@H]12 [2-methoxyestradiol] |  | tumor initiation of CSC (TGB lymphoma): reduced; inhibition of colony formation of sorted c-Kit+Sca-1+ tumor cells [2]: Inhibition; CFU of CSC ([1]; less efficacy than echinomycin (FIG. 12a)): reduced
COc1ccc2c(c1)c(C1=C(c3c[nH]c4ccccc34)C(=O)NC1=O)cn2CCCN(C)C [Gö6983] | no effect | 
O=S(=O)(NCCNC/C=C/c1ccc(Br)cc1)c1cccc2cnccc12 [H89] | no effect | 
CC(C)C[C@H](NC(=O)[C@H](Cc1ccccc1)C[C@@H](O)[C@H](Cc1ccccc1)NC(=O)OC(C)(C)C)C(=O)N[C@@H](Cc1ccccc1)C(N)=O [L-685, 458] |  | colony forming activity of lymphoma CSC ([1]; given doses for 24 hours, colonies counted after 6 to 7 days): potently blocked
O=c1cc(N2CCOCC2)oc2c(-c3ccccc3)cccc12 [Ly294002] | no effect | 
COc1cccc(-c2cc(=O)c3ccccc3o2)c1N [PD98059] | no effect | 
S=C(S)N1CCCC1 [PDTC] | no effect | 
CO[C@H]1C[C@@H]2CC[C@@H](C)[C@@](O)(O2)C(=O)C(=O)N2CCCC[C@H]2C(=O)O[C@H]([C@H](C)C[C@@H]2CC[C@@H](O)[C@H](OC)C2)CC(=O)[C@H](C)/C=C(\C)[C@@H](O)[C@@H](OC)C(=O)[C@H](C)C[C@H](C)/C=C/C=C/C=C/1C [Rapamycin] | no effect | 
C[S+]([O-])c1ccc(-c2nc(-c3ccncc3)c(-c3ccc(F)cc3)[nH]2)cc1 (stereo not shown) [SB203580] | no effect | 
Cn1cc(C2=C(c3ccc(Cl)cc3Cl)C(=O)NC2=O)c2ccccc21 [SB216763] | no effect | 
